Source: PMC8398847, “Isavuconazole: Thermodynamic Evaluation of Processes Sublimation, Dissolution and Partition in Pharmaceutically Relevant Media” (Molecules, 2021)
Where two headings read alike, the source gives them in different places.

How the values were obtained:
[1] = Solubility data modeling (modified Apelblat and van’t Hoff equations)
Excerpt: The modified Apelblat model developed for nonideal solutions is one of the most frequently used models for prediction and correlation of solubility data and can be expressed as follows:(21) lnx=A+B/T/K+Cln(T/K) where x is the compound solubility in the studied solvents, which can be determined by Equation (8); T is the absolute temperature; A, B and C are three empirical constants of the equation. The A and B values represent changes in the solution behavior as a result of the nonideality of the solute solubility, whereas C reflects the connection between the melting point and enthalpy. Despite its simple mathematical expression, this model can ensure high accuracy of prediction of the solute solubility at a variety of temperature values.
The van’t Hoff equation can be used to calculate the relationship between the solubility of solute and temperature. The equation can be simplified as Equation (22). (22) lnx=A+B/(T/K) where x represents the mole fraction solubility of compound. T is the absolute temperature and A, B are the regression parameters obtained using multivariable least-square method.

[2] = Partition experiment, 1-octanol/buffer pH 7.4, shake flask; type: physicochemical; settings: for logP at 24 h: 1-octanol/buffer pH 7.4, pH 7.4, 1-octanol/buffer pH 7.4, read-out: logP*O/B (mole fraction scale); for PO/B / logPO/B / sB · 10^6 (equilibrium molar concentration, buffer phase) / sO · 10^3 (equilibrium molar concentration, organic phase) / xB · 10^7 (mole fraction, buffer phase) / xo · 10^4 (mole fraction, 1-octanol phase): 1-octanol/buffer pH 7.4
Description: The partition coefficients in the 1-octanol/buffer pH 7.4 system were determined by the shake flask method in the temperature range 293.15–313.15 K. The total volume of the two-phase system 80 cm^3 with the ratio of the organic phase to the volume of the aqueous phase 1:1 was used. Before the experiment, both solvents were mutually saturated by stirring in a large vessel for two days. […] The flasks with the test compound were stirred for 24 h in an air thermostat until complete equilibrium was ensured, as evidenced by the absence of turbidity in each of the phases. The final drug concentrations in both immiscible phases were measured spectrophotometrically.
The partition coefficients in 1-octanol/buffer system (PO/B) were calculated as the ratio of the equilibrium molar concentrations in the organic (sO) and buffer (sB )phases:PO/B =sO/sB(9)
The value P*O/B expressed in mole fraction were determined by follow equation:P*O/B = xO/xB(10)
The standard transfer enthalpy of drug was calculated based on the experimental temperature dependence of partition coefficients using van’t Hoff method:(11) d(lnPO/B*)/dT=ΔtrH^0/RT^2 whereas the standard Gibbs energy of transfer process from the buffer to 1-octanol was evaluated:∆trG° = −RTlnP*O/B(12)
The standard transfer entropy (∆trS°) is obtained by means of relationship:∆trS° =(∆trH° − ∆trG°)/T(13)
The transfer thermodynamic functions represent the change in the enthalpy and entropy terms when one solute mole is transferred from the aqueous phase to the organic phase at infinite dilution.

[3] = transfer from buffer pH 7.4 to 1-octanol

C[C@@H](c1nc(-c2ccc(C#N)cc2)cs1)[C@](O)(Cn1cncn1)c1cc(F)ccc1F [IVZ, Isavuconazole]
xcal modified Apelblat equation ([1]; 1-octanol, 293.15 K): 6.2160·10^−3 | xcal van’t Hoff equation ([1]; 1-octanol, 293.15 K): 6.2245·10^−3 | xcal modified Apelblat equation ([1]; 1-octanol, 298.15 K): 7.4880·10^−3 | xcal van’t Hoff equation ([1]; 1-octanol, 298.15 K): 7.4831·10^−3 | xcal modified Apelblat equation ([1]; 1-octanol, 303.15 K): 8.9532·10^−3 | xcal van’t Hoff equation ([1]; 1-octanol, 303.15 K): 8.9416·10^−3 | xcal modified Apelblat equation ([1]; 1-octanol, 308.15 K): 10.629·10^−3 | xcal van’t Hoff equation ([1]; 1-octanol, 308.15 K): 10.623·10^−3 | xcal modified Apelblat equation ([1]; 1-octanol, 313.15 K): 12.534·10^−3 | xcal van’t Hoff equation ([1]; 1-octanol, 313.15 K): 12.551·10^−3 | xcal modified Apelblat equation ([1]; 1-propanol, 293.15 K): 7.8833·10^−3 | xcal van’t Hoff equation ([1]; 1-propanol, 293.15 K): 7.8924·10^−3 | xcal modified Apelblat equation ([1]; 1-propanol, 298.15 K): 9.5597·10^−3 | xcal van’t Hoff equation ([1]; 1-propanol, 298.15 K): 9.5750·10^−3 | xcal modified Apelblat equation ([1]; 1-propanol, 303.15 K): 11.528·10^−3 | xcal van’t Hoff equation ([1]; 1-propanol, 303.15 K): 11.542·10^−3 | xcal modified Apelblat equation ([1]; 1-propanol, 308.15 K): 13.827·10^−3 | xcal van’t Hoff equation ([1]; 1-propanol, 308.15 K): 13.830·10^−3 | xcal modified Apelblat equation ([1]; 1-propanol, 313.15 K): 16.501·10^−3 | xcal van’t Hoff equation ([1]; 1-propanol, 313.15 K): 16.475·10^−3 | xcal modified Apelblat equation ([1]; buffer pH 1.2, 293.15 K): 6.8301·10^−7 | xcal van’t Hoff equation ([1]; buffer pH 1.2, 293.15 K): 6.8234·10^−7 | xcal modified Apelblat equation ([1]; buffer pH 1.2, 298.15 K): 7.6469·10^−7 | xcal van’t Hoff equation ([1]; buffer pH 1.2, 298.15 K): 7.6519·10^−7 | xcal modified Apelblat equation ([1]; buffer pH 1.2, 303.15 K): 8.5388·10^−7 | xcal van’t Hoff equation ([1]; buffer pH 1.2, 303.15 K): 8.5488·10^−7 | xcal modified Apelblat equation ([1]; buffer pH 1.2, 308.15 K): 9.5109·10^−7 | xcal van’t Hoff equation ([1]; buffer pH 1.2, 308.15 K): 9.5164·10^−7 | xcal modified Apelblat equation ([1]; buffer pH 1.2, 313.15 K): 10.568·10^−7 | xcal van’t Hoff equation ([1]; buffer pH 1.2, 313.15 K): 10.557·10^−7 | xcal modified Apelblat equation ([1]; buffer pH 2.0, 293.15 K): 1.8489·10^−7 | xcal van’t Hoff equation ([1]; buffer pH 2.0, 293.15 K): 1.8386·10^−7 | xcal modified Apelblat equation ([1]; buffer pH 2.0, 298.15 K): 2.2301·10^−7 | xcal van’t Hoff equation ([1]; buffer pH 2.0, 298.15 K): 2.2353·10^−7 | xcal modified Apelblat equation ([1]; buffer pH 2.0, 303.15 K): 2.6872·10^−7 | xcal van’t Hoff equation ([1]; buffer pH 2.0, 303.15 K): 2.7002·10^−7 | xcal modified Apelblat equation ([1]; buffer pH 2.0, 308.15 K): 3.2354·10^−7 | xcal van’t Hoff equation ([1]; buffer pH 2.0, 308.15 K): 3.2418·10^−7 | xcal modified Apelblat equation ([1]; buffer pH 2.0, 313.15 K): 3.8914·10^−7 | xcal van’t Hoff equation ([1]; buffer pH 2.0, 313.15 K): 3.8694·10^−7 | xcal modified Apelblat equation ([1]; buffer pH 7.4, 293.15 K): 1.1915·10^−7 | xcal van’t Hoff equation ([1]; buffer pH 7.4, 293.15 K): 1.1936·10^−7 | xcal modified Apelblat equation ([1]; buffer pH 7.4, 298.15 K): 1.4708·10^−7 | xcal van’t Hoff equation ([1]; buffer pH 7.4, 298.15 K): 1.4693·10^−7 | xcal modified Apelblat equation ([1]; buffer pH 7.4, 303.15 K): 1.7998·10^−7 | xcal van’t Hoff equation ([1]; buffer pH 7.4, 303.15 K): 1.7964·10^−7 | xcal modified Apelblat equation ([1]; buffer pH 7.4, 308.15 K): 2.1840·10^−7 | xcal van’t Hoff equation ([1]; buffer pH 7.4, 308.15 K): 2.1821·10^−7 | xcal modified Apelblat equation ([1]; buffer pH 7.4, 313.15 K): 2.6294·10^−7 | xcal van’t Hoff equation ([1]; buffer pH 7.4, 313.15 K): 2.6341·10^−7 | xcal modified Apelblat equation ([1]; ethanol, 293.15 K): 0.9240·10^−2 | xcal van’t Hoff equation ([1]; ethanol, 293.15 K): 0.9213·10^−2 | xcal modified Apelblat equation ([1]; ethanol, 298.15 K): 1.1326·10^−2 | xcal van’t Hoff equation ([1]; ethanol, 298.15 K): 1.1348·10^−2 | xcal modified Apelblat equation ([1]; ethanol, 303.15 K): 1.3835·10^−2 | xcal van’t Hoff equation ([1]; ethanol, 303.15 K): 1.3883·10^−2 | xcal modified Apelblat equation ([1]; ethanol, 308.15 K): 1.6844·10^−2 | xcal van’t Hoff equation ([1]; ethanol, 308.15 K): 1.6873·10^−2 | xcal modified Apelblat equation ([1]; ethanol, 313.15 K): 2.0441·10^−2 | xcal van’t Hoff equation ([1]; ethanol, 313.15 K): 2.0379·10^−2 | xcal modified Apelblat equation ([1]; hexane, 293.15 K): 5.5187·10^−5 | xcal van’t Hoff equation ([1]; hexane, 293.15 K): 5.5171·10^−5 | xcal modified Apelblat equation ([1]; hexane, 298.15 K): 7.0549·10^−5 | xcal van’t Hoff equation ([1]; hexane, 298.15 K): 7.0584·10^−5 | xcal modified Apelblat equation ([1]; hexane, 303.15 K): 8.9506·10^−5 | xcal van’t Hoff equation ([1]; hexane, 303.15 K): 8.9572·10^−5 | xcal modified Apelblat equation ([1]; hexane, 308.15 K): 11.274·10^−5 | xcal van’t Hoff equation ([1]; hexane, 308.15 K): 11.279·10^−5 | xcal modified Apelblat equation ([1]; hexane, 313.15 K): 14.103·10^−5 | xcal van’t Hoff equation ([1]; hexane, 313.15 K): 14.099·10^−5 | logP at 24 h ([2]; 293.15 K): 3.44 | logP at 24 h ([2]; 298.15 K): 3.5 | logP at 24 h ([2]; 303.15 K): 3.56 | logP at 24 h ([2]; 308.15 K): 3.62 | logP at 24 h ([2]; 313.15 K): 3.68 | PO/B ([2]; 293.15 K): 313.71 | logPO/B ([2]; 293.15 K): 2.50 | sB · 10^6 (equilibrium molar concentration, buffer phase) ([2]; 293.15 K): 6.85 | sO · 10^3 (equilibrium molar concentration, organic phase) ([2]; 293.15 K): 2.15 | xB · 10^7 (mole fraction, buffer phase) ([2]; 293.15 K): 1.22 | xo · 10^4 (mole fraction, 1-octanol phase) ([2]; 293.15 K): 3.39 | PO/B ([2]; 298.15 K): 359.18 | logPO/B ([2]; 298.15 K): 2.56 | sB · 10^6 (equilibrium molar concentration, buffer phase) ([2]; 298.15 K): 5.98 | sO · 10^3 (equilibrium molar concentration, organic phase) ([2]; 298.15 K): 2.15 | xB · 10^7 (mole fraction, buffer phase) ([2]; 298.15 K): 1.07 | xo · 10^4 (mole fraction, 1-octanol phase) ([2]; 298.15 K): 3.40 | PO/B ([2]; 303.15 K): 413.63 | logPO/B ([2]; 303.15 K): 2.62 | sB · 10^6 (equilibrium molar concentration, buffer phase) ([2]; 303.15 K): 5.20 | sO · 10^3 (equilibrium molar concentration, organic phase) ([2]; 303.15 K): 2.15 | xB · 10^7 (mole fraction, buffer phase) ([2]; 303.15 K): 0.93 | xo · 10^4 (mole fraction, 1-octanol phase) ([2]; 303.15 K): 3.42 | PO/B ([2]; 308.15 K): 474.77 | logPO/B ([2]; 308.15 K): 2.68 | sB · 10^6 (equilibrium molar concentration, buffer phase) ([2]; 308.15 K): 4.53 | sO · 10^3 (equilibrium molar concentration, organic phase) ([2]; 308.15 K): 2.15 | xB · 10^7 (mole fraction, buffer phase) ([2]; 308.15 K): 0.81 | xo · 10^4 (mole fraction, 1-octanol phase) ([2]; 308.15 K): 3.43 | PO/B ([2]; 313.15 K): 535.22 | logPO/B ([2]; 313.15 K): 2.73 | sB · 10^6 (equilibrium molar concentration, buffer phase) ([2]; 313.15 K): 4.02 | sO · 10^3 (equilibrium molar concentration, organic phase) ([2]; 313.15 K): 2.15 | xB · 10^7 (mole fraction, buffer phase) ([2]; 313.15 K): 0.72 | xo · 10^4 (mole fraction, 1-octanol phase) ([2]; 313.15 K): 3.45 | TΔtrS° [2, 3]: TΔtrS° = 40.9 ± 1.5/kJ·mol^−1 | ΔtrG° [2, 3]: ΔtrG° = −19.99 ± 0.4/kJ·mol^−1 | ΔtrH° [2, 3]: ΔtrH° = 20.95 ± 0.2/kJ·mol^−1 | ΔtrS° [2, 3]: ΔtrS° = 137.3 ± 5.2/J·mol^−1K^−1
